{
  "source": "paper PMC7108782",
  "about": "“Direct interaction of metastasis-inducing S100P protein with tubulin causes enhanced cell migration without changes in cell adhesion” (Biochemical Journal, 2020)",
  "molecules": {"B1": {"name": "S100A9/A8: S100A9/A8 (MRP14/MRP8) complex (protein, UniProt P06702 1-114; P05109 1-93, looked up)", "Protein S100-A9": "MTCKMSQLERNIETIINTFHQYSVKLGHPDTLNQGEFKELVRKDLQNFLKKENKNEKVIEHIMEDLDTNADKQLSFEEFIMLMARLTWASHEKMHEGDEGPGHHHKPGLGEGTP", "Protein S100-A8": "MLTELEKALNSIIDVYHKYSLIKGNFHAVYRDDLKKLLETECPQYIRKKGADVWFKELDINTDGAVNFQEFLILVIKMGVAAHKKSHEESHKE"}, "B2": {"name": "S100A1: S100 protein (protein, UniProt P23297 1-94, looked up)", "Protein S100-A1": "MGSELETAMETLINVFHAHSGKEGDKYKLSKKELKELLQTELSGFLDAQKDVDAVDKVMKELDENGDGEVDFQEYVVLVAALTVACNNFFWENS"}},
  "key": {"[1]": {"conditions": "cited from earlier work; for Kd: ref [58], read-out: Kd for Ca2+ in absence of protein target", "text": "Cell migration is a complicated biological process involving many disparate cellular machines and regulatory systems. The cytoskeleton is essential for cell migration and is composed of three major types of fibres, intermediate filaments, actomyosin filaments and MTs. The intermediate filaments mainly provide mechanical strength to cells, whilst actomyosin filaments directly provide forces for cell migration. The roles of MTs in cell migration are more complex. On the one hand, MTs are a major support to cell polarity and their assembly can provide force for directional mo ..."}, "tubulin": {"system": "tubulin", "conditions": "cited from earlier work; for interaction with tubulin: ref [24]; for effect on MT assembly: ref [25]", "text": "The individual S100 proteins have been reported to interact inter alia with either NM or with tubulin, although with different binding affinities. […] Decreasing S100A1 is able to increase tubulin levels and this change alters neurite organisation in […]. […] However, it is ..."}, "Recombinant S100P": {"target": "T1, Recombinant S100P (UniProt P25815 1-95, 15N-labelled in the NMR experiments)", "T1 chain": "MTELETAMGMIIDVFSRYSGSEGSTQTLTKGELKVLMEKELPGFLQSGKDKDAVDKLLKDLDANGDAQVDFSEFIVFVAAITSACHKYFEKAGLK", "test": "SPR; competition: 20 µM peptide mixed with 1 µM S100P, applied to the α,β-tubulin-coated chip; extent of binding relative to S100P alone (100%)"}, "COS-7 S10 cells": {"system": "COS-7 S10 cells", "test": "Boyden chamber cell migration, S100P-inducible COS-7", "assay_type": "cell-based, monkey", "text": "(§1) Cell migration rate (%) = M/G × 100."}, "COS-7 cells": {"system": "COS-7 cells", "test": "Boyden chamber cell migration, COS-7 parental", "assay_type": "cell-based, monkey", "conditions": "5 µM colchicine, 24 h, COS-7", "text": "as §1"}, "Rama 37-T25 cells": {"system": "Rama 37-T25 cells", "test": "S100P-enhanced cell migration, Rama 37-T25", "assay_type": "cell-based, rat", "conditions": "Rama 37-T25; 20 nM taxol or 5 µM colchicine, 24 h", "text": "as §1"}, "HeLa-A3 cells": {"system": "HeLa-A3 cells", "test": "S100P-enhanced cell migration, HeLa-A3", "assay_type": "cell-based, human", "conditions": "HeLa-A3; 20 nM taxol or 5 µM colchicine, 24 h", "text": "as §1"}, "HeLa cells": {"system": "HeLa cells", "test": "Boyden chamber cell migration with MT regulators, HeLa", "conditions": "5 µM colchicine, 24 h"}, "MCF-7 cells": {"system": "MCF-7 cells", "test": "Boyden chamber cell migration with MT regulators, MCF-7"}, "Rama 37 cells": {"system": "Rama 37 cells", "test": "Boyden chamber cell migration with MT regulators, Rama 37", "conditions": "5 µM colchicine, 24 h"}, "S100P": {"target": "T2, S100P (Homo sapiens, UniProt P25815)", "T2 construct": "made in house", "T2 sequence (P25815 1-95)": "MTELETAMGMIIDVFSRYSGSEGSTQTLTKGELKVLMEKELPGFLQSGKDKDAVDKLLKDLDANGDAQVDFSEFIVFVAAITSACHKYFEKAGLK", "test": "Isothermal titration calorimetry (ITC) of tubulin peptides with S100P", "assay_type": "binding", "description": "Measurements were conducted using an ITC-200 instrument (Microcal) as previously described. ITC titrations were performed in 20 mM MES pH 6.1, 50 mM NaCl, 1.0 mM TCEP and 5 mM CaCl2 (for Ca^2+-form of S100P) at 25°C. Due to low solubility, peptide solutions at concentrations of 10–400 µM were placed in the cell and titrated with S100P at concentrations of 0.5–3 mM, depending on the peptide concentration. Data were integrated and fitted to a single site binding equation using Origin 7 software which was included with the ITC module (Malvern Microcal, Malvern, U.K.)."}, "[2]": {"system": "tubulin polymerisation in COS-7 S10 cells", "test": "In vivo tubulin polymerisation assay, COS-7 / COS-7 S10", "assay_type": "cell-based, monkey", "conditions": "parental COS-7, 1 µg/ml doxycycline", "description": "(§2) HeLa and S100P-inducible HeLa, COS-7 and S100P-inducible COS-7 cells were routinely cultured with or without doxycycline (1 µg/ml) and treated with 33 µM nocodazole for 24 h to synchronise the cells. Then the nocodazole was washed away (First release) and the synchronised cells were cultured in normal medium for 4 h to allow them to complete cell division. The nocodazole was then added again for 4 h to dissociate all the MTs. After this time, nocodazole was again removed by extensive washings (Second release) and tubulin was allowed to polymerise in the interphase of the cell cycle for different times. The cells were treated with buffer (10 mM Tris–HCl, 150 mM KCl, pH 7.4, 2% (v/v) Triton X-100) and the Triton-X100-insoluble tubulins (representing the newly formed MTs) were solubilised in Sample Buffer and quantified by Western blotting. To test the effect of tubulin-derived peptides, 20 µM T-DIC, T-DLV, T-IMN and tag-peptide alone (Supplementary Table S3) in 0.25% (v/v) DMSO as solvent, as well as the solvent control 0.25% (v/v) DMSO were added immediately after the second release in Sample Buffer and quantified at the different time points by Western blotting."}, "[3]": {"system": "tubulin polymerisation in HeLa-A19 cells", "test": "In vivo tubulin polymerisation assay, HeLa / HeLa-A19", "assay_type": "cell-based, human", "conditions": "parental HeLa, 1 µg/ml doxycycline", "description": "as §2"}},
  "note": "No end group written: not given here.",
  "data": [
    {"molecule": "S100A4: S100 protein", "values": [
      {"measurement": "change of Ca2+ Kd in complex with NMIIA fragments", "setting": "[1]; ITC, preformed S100A4/NMIIA fragments, ref [57]", "value": "reduced by several orders of magnitude"},
      {"measurement": "Kd", "setting": "[1]", "value": "> 1", "unit": "µM"}
    ]},
    {"molecule": "S100B: S100 protein", "values": [
      {"measurement": "interaction with tubulin", "setting": "tubulin", "value": "can interact with tubulin in a calcium-dependent manner"},
      {"measurement": "effect on MT assembly", "setting": "tubulin", "value": "disrupt the assembly of MT"},
      {"measurement": "Kd", "setting": "[1]", "value": "> 1", "unit": "µM"}
    ]},
    {"molecule": "T-DIC, DIC peptide with the N-terminal 10 amino acid TAT-HA2 tag for cell entry", "values": [
      {"measurement": "percent reduction of the extent of binding of 1 µM S100P to α,β-tubulin at 20 µM peptide", "setting": "Recombinant S100P", "value": 50, "unit": "%"}
    ]},
    {"molecule": "COc1cc2c(c(OC)c1OC)-c1ccc(OC)c(=O)cc1[C@@H](NC(C)=O)CC2", "note": "[colchicine]", "values": [
      {"measurement": "effect on S100P-enhanced migration", "setting": "COS-7 S10 cells; COS-7 S10, 20 nM taxol or 5 µM colchicine, 24 h", "value": "suppressed"},
      {"measurement": "effect on S100P's stimulation of migration", "setting": "COS-7 S10 cells; taxol to stabilise MTs or colchicine to dissociate MTs (abstract)", "value": "abolished"},
      {"measurement": "reduction of migration by colchicine", "setting": "COS-7 cells", "value": "30–70%"},
      {"measurement": "effect on S100P-enhanced migration", "setting": "Rama 37-T25 cells", "value": "suppressed"},
      {"measurement": "effect on S100P-enhanced migration", "setting": "HeLa-A3 cells", "value": "suppressed"},
      {"measurement": "reduction of migration by colchicine", "setting": "HeLa cells", "value": "30–70%"},
      {"measurement": "effect of colchicine on migration (in words)", "setting": "MCF-7 cells; MCF-7, 5 µM time course, dose response 24 h", "value": "increase dramatically cell migration in a time and dose-dependent manner"},
      {"measurement": "concentration abolishing the enhancement of migration", "setting": "MCF-7 cells; MCF-7, colchicine", "value": "> 10", "unit": "µM"},
      {"measurement": "incubation time abolishing the enhancement of migration", "setting": "MCF-7 cells; MCF-7, colchicine", "value": "> 24", "unit": "h"},
      {"measurement": "concentration range enhancing migration", "setting": "MCF-7 cells; MCF-7, colchicine, Figure 6C", "value": "1 to 10", "unit": "µM"},
      {"measurement": "reduction of migration by colchicine", "setting": "Rama 37 cells", "value": "30–70%"}
    ]},
    {"molecule": "T-DLV, DLV peptide with the N-terminal 10 amino acid TAT-HA2 tag for cell entry", "values": [
      {"measurement": "percent reduction of the extent of binding of 1 µM S100P to α,β-tubulin at 20 µM peptide", "setting": "Recombinant S100P", "value": 50, "unit": "%"}
    ]},
    {"molecule": "DIC peptide, the 26mer starting with DIC from β-tubulin", "values": [
      {"measurement": "percent inhibition of the extent of binding of 1 µM S100P to α,β-tubulin at 20 µM peptide", "setting": "Recombinant S100P", "value": "> 50", "unit": "%"}
    ]},
    {"molecule": "VNAAIATIKTKRTIQFVDWCPTGFKVGINY [VNA]", "values": [
      {"measurement": "Kd", "setting": "S100P; ITC, 25°C, 20 mM MES pH 6.1, 50 mM NaCl, 1.0 mM TCEP, 5 mM CaCl2, single site fit, peptide in cell, S100P titrated", "value": 62, "unit": "µM"},
      {"measurement": "affinity for S100P (in words)", "setting": "S100P; NMR and ITC", "value": "relatively weak"}
    ]},
    {"molecule": "C[C@H]1c2cccc(O)c2C(=O)C2=C(O)[C@]3(O)C(=O)C(C(N)=O)=C(O)[C@@H](N(C)C)[C@@H]3[C@@H](O)[C@@H]21", "note": "[doxycycline, reference compound]", "values": [
      {"measurement": "effect of doxycycline on tubulin polymerisation, parental cells", "setting": "[2]", "value": "no significant differences"},
      {"measurement": "effect of doxycycline on tubulin polymerisation, parental cells", "setting": "[3]", "value": "no significant differences"}
    ]},
    {"molecule": "B1", "values": [
      {"measurement": "effect on tubulin polymerisation in vivo", "setting": "tubulin; ref [27]", "value": "promotes tubulin polymerisation in vivo"}
    ]},
    {"molecule": "B2", "values": [
      {"measurement": "interaction with tubulin", "setting": "tubulin", "value": "can interact with tubulin in a calcium-dependent manner"},
      {"measurement": "effect on MT assembly", "setting": "tubulin", "value": "disrupt the assembly of MT"}
    ]}
  ]
}
